± gives the expanded uncertainty stated by the source.
Settings: 101.33 kPa, Liquid; for electrical conductivity: the complex impedance method; for mass density: Vibrating tube method

CC[N+](C)(CC)CCOC.O=S(=O)([N-]S(=O)(=O)C(F)(F)F)C(F)(F)F
Settings	electrical conductivity [S/m]	mass density [kg/m3]	viscosity [mPa·s]
234.15 K	0.00083 ± 1e-05	–	–
243.15 K	0.0033 ± 0.0001	–	–
253.15 K	0.0113 ± 0.0001	–	–
263.15 K	0.0301 ± 0.0003	–	–
273.15 K	0.0662 ± 0.0007	–	–
283.15 K	0.127 ± 0.001	1420.6 ± 1.9	166 ± 11
288.15 K	–	1416.1 ± 1.9	123 ± 6
293.15 K	0.216 ± 0.002	1411.5 ± 1.9	92.7 ± 3.3
298.15 K	–	1406.9 ± 1.9	71.8 ± 1.6
303.15 K	0.336 ± 0.003	1402.3 ± 1.9	56.8 ± 0.8
308.15 K	–	1397.7 ± 1.9	45.7 ± 0.8
313.15 K	0.488 ± 0.005	1393.2 ± 1.9	37.4 ± 0.6
318.15 K	–	1388.6 ± 1.9	31 ± 0.5
323.15 K	0.67 ± 0.007	1384 ± 1.9	26.1 ± 0.4
328.15 K	–	1379.5 ± 1.9	22.2 ± 0.4
333.15 K	0.869 ± 0.009	1375 ± 1.9	19.1 ± 0.3
338.15 K	–	1370.5 ± 1.8	16.6 ± 0.3
343.15 K	1.09 ± 0.01	1366.1 ± 1.8	14.5 ± 0.3
348.15 K	–	1361.7 ± 1.8	12.8 ± 0.2
353.15 K	1.33 ± 0.01	1357.3 ± 1.8	11.4 ± 0.2

CC[N+](C)(CC)CCOC.F[B-](F)(F)F
Settings	electrical conductivity [S/m]	mass density [kg/m3]	viscosity [mPa·s]
263.15 K	0.0055 ± 0.0001	–	–
273.15 K	0.0156 ± 0.0002	–	–
283.15 K	0.0381 ± 0.0004	1188.2 ± 1.5	1350 ± 240
288.15 K	–	1184.8 ± 1.5	890 ± 140
293.15 K	0.0821 ± 0.0008	1181.3 ± 1.5	604 ± 81
298.15 K	–	1177.8 ± 1.5	422 ± 49
303.15 K	0.153 ± 0.002	1174.4 ± 1.5	303 ± 30
308.15 K	–	1171 ± 1.5	222 ± 18
313.15 K	0.262 ± 0.003	1167.7 ± 1.5	167 ± 11
318.15 K	–	1164.4 ± 1.5	128 ± 7
323.15 K	0.414 ± 0.004	1161.1 ± 1.5	99.7 ± 3.9
328.15 K	–	1157.9 ± 1.5	79.1 ± 2.1
333.15 K	0.612 ± 0.006	1154.7 ± 1.5	63.7 ± 1.1
338.15 K	–	1151.4 ± 1.5	52 ± 0.6
343.15 K	0.857 ± 0.009	1148.2 ± 1.5	43 ± 0.7
348.15 K	–	1145 ± 1.4	36 ± 0.6
353.15 K	1.16 ± 0.01	1141.8 ± 1.4	30.5 ± 0.5
